Where “and” joins values, the source holds several entries; their conditions need not be identical. Equal entries are not always repeated. Entries after “also recorded” stand apart in the source; their conditions may differ.
Assays:
[1] = molecular target: T1, human TLR2 (Homo sapiens, UniProt O60603); experiment: NF-kB activation in HEKBlue-hTLR2 cell line (SEAP reporter); assay type: cell-based
T1 construct: host or cells: HEK-Blue hTLR2 (HEK293-derived) cell line
Description: The potency of the compounds as activators of human and mouse TLR-2s was tested in an in vitro assay. The assay assesses NF-kB activation in the HEKBlue-mTLR-2 cell line. These cells have been stably transfected with mouse TLR-2 and express TLR-1 and TLR-6 endogenously at sufficient levels to allow for fully-functional TLR-1/2 and TLR-2/6 activation.
Toll-Like Receptor 2 (TLR2) stimulation is tested by assessing NF-kB activation in the HEKBlue-hTLR2 cell line. These cells have been stably transfected with human TLR2 and express TLR1 and TLR6 endogenously at a level sufficient to allow for fully-functional TLR1/2 and TLR2/6 activation. The activity of the test articles are tested on human TLR2 as potential agonists. The test articles are evaluated at seven concentrations and compared to control ligands. These steps are performed in triplicate.
Toll-Like Receptor 2 (TLR2) stimulation was tested by assessing N-kB activation in the HEK-Blue hTLR2 cell line. These cells have been stably transfected with human TLR2 and express TLR1 and TLR6 endogenously at a level sufficient to allow for fully-functional TLR1/2 and TLR2/6 activation. The activity of the test articles were tested on human TLR2 as potential agonists. The test articles were evaluated at seven concentrations and compared to control ligands (see list below). These steps were performed in triplicate.
The secreted embryonic alkaline phosphatase (SEAP) reporter is under the control of a promoter inducible by the transcription factor NF-κB. This reporter gene allows the monitoring of signaling through the TLR, based on the activation of NF-κB. In a 96-well plate (200 μL total volume) containing the appropriate cells (50,000-75,000 cells/well), 20 μL of the test article or the positive control ligand is added to the wells. The media added to the wells is designed for the detection of NF-κB induced SEAP expression. After a 20 hour incubation the optical density (OD) is read at 650 nm on a Molecular Devices SpectraMax 340PC absorbance detector.

[2] = tested on: cytokines/chemokines (IL-6, KC, MCP-1, RANTES); experiment: Cytokine/chemokine levels in nasal turbinates, trachea, lungs and sera (cytometric bead array); assay type: in vivo, C57BL/6 mice
[3] = tested on: TLR-2; experiment: TLR panel, NF-κB inducible SEAP reporter in HEK293 cells: TLR-2; assay type: cell-based, human and mouse
Description: INNA-006 was assessed for its ability to activate a range of other TLR pattern recognition receptors. These assessments were conducted using both human and mouse TLR panels. These assays detect a secreted embryonic alkaline phosphatase (SEAP) reporter under the control of a promoter which is inducible by NF-κB activation in HEK293 cells. The secreted embryonic alkaline phosphatase (SEAP) reporter is under the control of a promoter inducible by the transcription factor NF-κB. This reporter gene allows the monitoring of signaling through the TLR, based on the activation of NF-κB. In a 96-well plate (200 μL total volume) containing the appropriate cells (50,000-75,000 cells/well), 20 μL of the test article or the positive control ligand is added to the wells. The media added to the wells is designed for the detection of NF-κB induced SEAP expression. After a 16-24 hr incubation the optical density (OD) is read at 650 nm on a Molecular Devices SpectraMax 340PC absorbance detector. • hTLR2: HKLM (heat-killed Listeria monocytogenes) at 1×10^8 cells/mL • hTLR3: Poly(I:C) HMW at 1 μg/mL • hTLR4: E. coli K12 LPS at 100 ng/mL • hTLR5: S. typhimurium flagellin at 100 ng/mL • hTLR7: CL307 at 1 μg/mL • hTLR8: CL075 at 1 μg/mL • hTLR9: CpG ODN2006 at 1 μg/mL.

[4] = Size exclusion chromatography and LC-MS analysis of micelle aggregates; assay type: physicochemical; conditions: INNA-006 at 0.3 mg/ml in PBS; INNA-011 at 0.4 mg/ml in saline
Description: INNA-011 and INNA-006 form micelle-type aggregates in both aqueous and organic solutions. The size distribution and polydispersity of particles of INNA-006 and INNA-011 were determined by dynamic light scattering (DLS) and size exclusion chromatography (University of Melbourne). […] This corresponds to the assembly in a micelle formation of about 266 individual INNA-006 molecules. Using size exclusion chromatography and LC-MS analysis, it was determined that INNA-011 at 0.4 mg/ml is present in saline solution as a single uniform species with a Stoke's radius of ˜7.3 nm and a molecular weight of ˜566,000. This corresponds to the assembly in a micelle formation of about 267 individual INNA-011 molecules.

[5] = Dynamic light scattering (DLS) particle size; assay type: physicochemical; conditions: within 2 hours of sample preparation
Description: INNA-011 and INNA-006 form micelle-type aggregates in both aqueous and organic solutions. The size distribution and polydispersity of particles of INNA-006 and INNA-011 were determined by dynamic light scattering (DLS) and size exclusion chromatography (University of Melbourne).
As the concentration of INNA-006 is increased, material with a particle size centered on a radius of ˜7 nm accumulates within 2 hours of the sample preparation as measured by DLS. This accumulation starts at a concentration of ˜16 μM, (0.02 mg/ml, represents the 0.16 nmole/10 μl curve) and is clearly discernable at 125 μM (0.17 mg/ml, represents the 1.25 nmole/10 μl curve) and above.
At the concentrations of 2 mM to […] particle sizes (7.4-7.7 nm) were larger than that observed with INNA-006 and additional species outside of this main sequence were more ordered and less dominant.

[6] = human plasma, 37° C., 4 h time course
[7] = in vitro; conditions: dog, dog plasma
[8] = in vitro; conditions: rat, hepatocytes
[9] = in vitro; conditions: dog, hepatocytes
[10] = in vitro; conditions: cynomolgus monkey, hepatocytes
[11] = 3-dose regime, 0.5 and 0.05 nmole doses

T1 sequence (O60603 21-784): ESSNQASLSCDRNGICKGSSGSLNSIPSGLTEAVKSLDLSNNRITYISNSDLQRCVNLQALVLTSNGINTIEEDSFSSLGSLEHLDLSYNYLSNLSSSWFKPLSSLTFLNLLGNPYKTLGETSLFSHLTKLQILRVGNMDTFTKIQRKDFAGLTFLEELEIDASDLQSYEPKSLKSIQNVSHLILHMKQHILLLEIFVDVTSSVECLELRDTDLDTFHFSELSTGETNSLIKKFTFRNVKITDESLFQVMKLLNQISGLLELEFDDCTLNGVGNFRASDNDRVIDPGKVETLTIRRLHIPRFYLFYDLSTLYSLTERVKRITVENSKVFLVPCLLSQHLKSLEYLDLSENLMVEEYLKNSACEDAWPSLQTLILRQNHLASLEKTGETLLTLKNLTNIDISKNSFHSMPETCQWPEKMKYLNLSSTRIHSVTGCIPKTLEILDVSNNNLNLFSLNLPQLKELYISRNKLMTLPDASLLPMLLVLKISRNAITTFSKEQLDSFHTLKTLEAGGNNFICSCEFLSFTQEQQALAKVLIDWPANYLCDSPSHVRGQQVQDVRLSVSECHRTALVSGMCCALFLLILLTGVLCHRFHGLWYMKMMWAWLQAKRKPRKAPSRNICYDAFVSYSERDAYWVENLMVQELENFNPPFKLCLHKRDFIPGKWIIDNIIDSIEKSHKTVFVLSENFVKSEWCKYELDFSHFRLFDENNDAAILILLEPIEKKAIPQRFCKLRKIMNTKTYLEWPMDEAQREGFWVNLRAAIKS
T1 sequence (Q9Y2C9 32-796 partner): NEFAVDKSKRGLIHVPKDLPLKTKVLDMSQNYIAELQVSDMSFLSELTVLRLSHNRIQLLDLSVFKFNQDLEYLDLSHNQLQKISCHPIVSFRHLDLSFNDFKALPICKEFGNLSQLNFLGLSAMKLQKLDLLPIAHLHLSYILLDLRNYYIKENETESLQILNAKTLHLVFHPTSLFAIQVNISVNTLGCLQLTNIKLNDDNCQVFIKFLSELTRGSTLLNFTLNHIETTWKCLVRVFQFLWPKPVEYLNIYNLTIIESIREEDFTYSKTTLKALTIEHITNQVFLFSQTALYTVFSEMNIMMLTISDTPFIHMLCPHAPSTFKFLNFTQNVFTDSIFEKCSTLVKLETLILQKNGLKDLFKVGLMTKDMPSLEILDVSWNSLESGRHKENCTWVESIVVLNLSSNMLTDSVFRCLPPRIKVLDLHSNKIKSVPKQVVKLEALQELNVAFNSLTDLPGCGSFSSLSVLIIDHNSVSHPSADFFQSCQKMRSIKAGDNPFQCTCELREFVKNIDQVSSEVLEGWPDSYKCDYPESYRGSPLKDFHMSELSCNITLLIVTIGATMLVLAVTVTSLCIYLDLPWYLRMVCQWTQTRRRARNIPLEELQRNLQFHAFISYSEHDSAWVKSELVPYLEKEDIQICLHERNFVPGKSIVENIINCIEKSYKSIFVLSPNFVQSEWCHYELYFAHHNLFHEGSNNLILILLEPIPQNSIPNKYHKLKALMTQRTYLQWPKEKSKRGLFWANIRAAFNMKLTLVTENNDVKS

Structure (SMILES): CCC(=O)OCC(CSCC(N)C(=O)NC(CO)C(=O)NCCOCC(=O)NCC(N)=O)OC(=O)CC (stereo not drawn) [INNA-006, Pam2Cys-Ser-PEG]
- TLR2 activation, potency in words ([1]; Example 2): significantly more potent than INNA-003
- EC50 ([1]; agonist activity against Human TLR-2 in vitro): 7.7 pM
- fold lower IL-6 in nasal turbinates, 3 doses compared to single dose ([2]; 0.5 nmoles): approximately 25 fold
- cytokine/chemokine levels in nasal turbinates, lungs and sera, 3 repeat doses compared to single dose ([2]; 0.5 or 0.05 nmoles): marked decrease in cytokine/chemokine levels
- level of KC in lungs ([2]; 3-dose regime (both 0.5 and 0.05 nmole doses)): ~14 pg/mL and ~16.3 pg/mL
- fold increase of KC secretion in lungs compared to INNA-003 [2, 11]: 2 fold
- fold increase of KC secretion in lungs compared to saline control [2, 11]: 3 fold
- level of IL-6 in nasal turbinates ([2]; 3 doses (0.5 nmoles), 24 hours after last dose): 15 pg/mL
- fold increase of KC in nasal turbinates versus saline ([2]; mouse, in vivo): 2 fold
- level of KC in nasal turbinates ([2]; mouse, in vivo): ~83 pg/mL
- inflammatory cytokines after pre-treatment and Udorn challenge ([2]; pre-treatment with up to three doses followed by challenge): no detectable change in any of the inflammatory cytokines measured
- KC in the lungs compared to saline control ([2]; single dose): no significance
- RANTES in nasal turbinates compared to INNA-003 ([2]; single dose 0.5 nmoles): increased RANTES secretion
- fold increase in IL-6 levels in nasal turbinates versus saline ([2]; single dose 0.5 nmoles): 98 fold
- level of IL-6 in nasal turbinates ([2]; single dose (0.5 nmoles), 24 hours after dose): ~395 pg/mL
- cytokine/chemokine profile in nasal turbinates compared to saline (IL-6, KC & MCP-1) ([2]; single or 3 repeat doses, 0.5 or 0.05 nmoles, dose-dependent): increase in proinflammatory cytokines and chemokines
- TLR-2 activation [3]: specific TLR-2 activation; also recorded: able to activate
- Stokes radius [4]: ~6.3 nm
- individual molecules assembled in a micelle formation [4]: about 266 molecules
- molecular weight of micelle species [4]: ~377,000
- concentration at which accumulation of ~7 nm particles starts ([5]; DLS): ~16 µM
- particle size (radius) by DLS ([5]; INNA-011 at 2 mM to 8 pM in PBS): around 7 nm
- plasma half-life [6]: could not be calculated due to insufficient degradation
- half-life [7]: 8.9 h
- half-life at 0.5 μM [8]: > 6.25 h
- hepatocyte CLint at 0.5 μM [8]: < 2 µL/min/1e6 cells
- half-life at 0.5 μM [9]: > 6.25 h
- hepatocyte CLint at 0.5 μM [9]: < 2 µL/min/1e6 cells
- half-life at 0.5 μM [10]: > 6.25 h
- hepatocyte CLint at 0.5 μM [10]: < 2 µL/min/1e6 cells

Reference: patent US12195557B2, “Optimised compounds” (AXELIA ONCOLOGY PTY LTD, priority 2017, dated 2025)
